Results taken from patent US12203099B2, “Methods of expanding cholangiocytes” (Cambridge Enterprise Limited, priority 2017, dated 2025).

System: ECOs
Test: Response to secretin and somatostatin (organoid diameter)
Format: cell-based, human
Conditions: ECOs exposed to secretin, compared to untreated controls
Method: Responses to secretin and somatostatin were assessed as described in Sapazoits F, et al. (Biotechnol. 2015 1-11).
We then further characterized ECOs by focusing on their function following long-term culture (20 passages). The biliary epithelium regulates the homeostasis of bile through the transport of ions, water and bile acids. The secretory capacity of ECOs was interrogated using Rhodamine-123, a fluorescent substrate for the cholangiocyte surface glycoprotein Multidrug Resistance protein-1 (MDR1) (FIGS. 10 and 11). […]. […] The response of ECOs to secretin and somatostatin was also assessed. Secretin promotes water secretion, distending the bile duct lumen, while somatostatin negates the effects of secretin.

secretin
organoid diameter: increased their diameter compared to untreated controls
